The source of these data is US5028716A, “3,5-diamino-1,2,4-triazole derivatives” (Taisho Pharmaceutical Co., Ltd., priority 1989, dated 1991).

In one assay the test system is lipid peroxidation (cerebral tissue homogenate). Put plainly: Inhibition test of lipid peroxidation (malondialdehyde formation, thiobarbituric acid method). The note with it: 5 μM, rat cerebral tissue supernatant, pH 7.4, 37° C., 30 minutes.
On to `Nc1nc(N(CCSSCCN(Cc2ccccc2)c2n[nH]c(N)n2)Cc2ccccc2)n[nH]1` [Compound 7, bis{2-[N-benzyl-N-(5-amino-1,2,4-triazol-3-yl)amino]ethyl}disulfide], for which the “Inhibition (%) Dose 5 μM” value stood at 31.4%.

Consider `Nc1n[nH]c(N(CCSSCCN(Cc2cccc(Br)c2)c2nc(N)n[nH]2)Cc2cccc(Br)c2)n1` [Compound 13], for which the “Inhibition (%) Dose 5 μM” value worked out at 51.1%.

For the compound `Nc1n[nH]c(N(CCSSCCN(Cc2ccc(Br)cc2)c2nc(N)n[nH]2)Cc2ccc(Br)cc2)n1` [Compound 14], the “Inhibition (%) Dose 5 μM” value was determined as 49.2%.

As to `COc1ccc(CN(CCSSCCN(Cc2ccc(OC)cc2)c2nc(N)n[nH]2)c2nc(N)n[nH]2)cc1` [Compound 17], the “Inhibition (%) Dose 5 μM” value is listed as 22.2%.

Turning to `Nc1n[nH]c(N(CCSSCCN(Cc2ccc(OCc3ccccc3)cc2)c2nc(N)n[nH]2)Cc2ccc(OCc3ccccc3)cc2)n1` [Compound 18], the “Inhibition (%) Dose 5 μM” value was 71.7%.

For `Nc1n[nH]c(N(CCSSCCN(Cc2cccc([N+](=O)[O-])c2)c2nc(N)n[nH]2)Cc2cccc([N+](=O)[O-])c2)n1` [Compound 19], the “Inhibition (%) Dose 5 μM” value is reported as 21.3%.

Consider `Nc1n[nH]c(N(CCSSCCN(Cc2ccc([N+](=O)[O-])cc2)c2nc(N)n[nH]2)Cc2ccc([N+](=O)[O-])cc2)n1` [Compound 20], for which the “Inhibition (%) Dose 5 μM” value amounted to 35.2%.

In the case of `Nc1n[nH]c(N(CCSSCCN(Cc2cccc(C(F)(F)F)c2)c2nc(N)n[nH]2)Cc2cccc(C(F)(F)F)c2)n1` [Compound 22], the “Inhibition (%) Dose 5 μM” value is listed as 36.6%.

On to `Cc1cccc(CN(CCSSCCN(Cc2cccc(C)c2)c2nc(N)n[nH]2)c2nc(N)n[nH]2)c1` [Compound 23], for which the “Inhibition (%) Dose 5 μM” value was 48.1%.

On to `Cc1ccccc1CN(CCSSCCN(Cc1ccccc1C)c1nc(N)n[nH]1)c1nc(N)n[nH]1` [Compound 24], for which the “Inhibition (%) Dose 5 μM” value came out at 41.6%.

Take `Cc1ccc(CN(CCSSCCN(Cc2ccc(C)cc2)c2nc(N)n[nH]2)c2nc(N)n[nH]2)cc1` [Compound 25]: the “Inhibition (%) Dose 5 μM” value was found to be 51.8%.

`Cc1ccc(C)c(CN(CCSSCCN(Cc2cc(C)ccc2C)c2nc(N)n[nH]2)c2nc(N)n[nH]2)c1` [Compound 29]: the “Inhibition (%) Dose 5 μM” value is reported as 70.8%.

Take `Cc1cc(C)c(CN(CCSSCCN(Cc2c(C)cc(C)cc2C)c2nc(N)n[nH]2)c2nc(N)n[nH]2)c(C)c1` [Compound 30]: the “Inhibition (%) Dose 5 μM” value was determined as 85.8%.

Turning to `CC(C)(C)c1ccc(CN(CCSSCCN(Cc2ccc(C(C)(C)C)cc2)c2nc(N)n[nH]2)c2nc(N)n[nH]2)cc1` [Compound 33], the “Inhibition (%) Dose 5 μM” value came out at 35.6%.

Regarding `Nc1n[nH]c(N(CCSSCCN(Cc2ccc(-c3ccccc3)cc2)c2nc(N)n[nH]2)Cc2ccc(-c3ccccc3)cc2)n1` [Compound 34], the “Inhibition (%) Dose 5 μM” value was found to be 55.8%.

Turning to `Cc1ccc(CN(CCSSCCN(Cc2ccc(C)c([N+](=O)[O-])c2)c2nc(N)n[nH]2)c2nc(N)n[nH]2)cc1[N+](=O)[O-]` [Compound 37], the “Inhibition (%) Dose 5 μM” value is on record as 31.4%.

Take `Nc1n[nH]c(N(CCSSCCN(Cc2cccc3ccccc23)c2nc(N)n[nH]2)Cc2cccc3ccccc23)n1` [Compound 38]: the “Inhibition (%) Dose 5 μM” value worked out at 56.8%.

As for `Nc1n[nH]c(N(CCSSCCN(Cc2ccc3ccccc3c2)c2nc(N)n[nH]2)Cc2ccc3ccccc3c2)n1` [Compound 39], the “Inhibition (%) Dose 5 μM” value is on record as 56.3%.

Turning to vitamin E [reference compound], the “Inhibition (%) Dose 5 μM” value was 12.6%.

The same assay, now with this note: 100 μM, rat cerebral tissue supernatant, pH 7.4, 37° C., 30 minutes.
On to `CC(C)N(CCSSCCN(c1nc(N)n[nH]1)C(C)C)c1nc(N)n[nH]1` [Compound 6], for which the “Inhibition (%) Dose 100 μM” value was 55.7%.

For `Nc1nc(N(CCSSCCN(Cc2ccccc2)c2n[nH]c(N)n2)Cc2ccccc2)n[nH]1` [Compound 7, bis{2-[N-benzyl-N-(5-amino-1,2,4-triazol-3-yl)amino]ethyl}disulfide], the “Inhibition (%) Dose 100 μM” value came out at 96.0%.

Take `COc1ccc(CN(CCSSCCN(Cc2ccc(OC)cc2)c2nc(N)n[nH]2)c2nc(N)n[nH]2)cc1` [Compound 17]: the “Inhibition (%) Dose 100 μM” value is 100%.

As for `Nc1n[nH]c(N(CCSSCCN(Cc2cccc([N+](=O)[O-])c2)c2nc(N)n[nH]2)Cc2cccc([N+](=O)[O-])c2)n1` [Compound 19], the “Inhibition (%) Dose 100 μM” value was 100%.

As to vitamin E [reference compound], the “Inhibition (%) Dose 100 μM” value was determined as 30.5%.
